Assays:
[1] = test system: mouse maximal electroshock seizure (MES) model; assay: Maximal electroshock seizure (MES) test, mouse; format: in vivo; conditions: MES, mouse; read-out: Mouse ED50
Text: (§1) The MES testing protocol is based on procedures established at the National Institute of Neurological Disorders and Stroke in conjunction with the Anticonvulsant Screening Program (ASP) at the University of Utah (White, H. S., Woodhead, J. H., Wilcox, K. S., Stables, J. P., Kupferberg, H. J and Wolf, H. H. 2002. “General Principles: Discovery and Preclinical Development of Antiepileptic Drugs,” in Antiepileptic Drugs, 5th Edition, R. H. Levy, ed.; R. H. Mattson, B. S. Meldrum, and E. Perucca. Philadelphia, Lippincott Williams & Wilkins.), The goal of the test rapid identification and characterization of the in vivo anticonvulsant activity of any compounds that have been shown active in PC-12 cellular based Rb^+ efflux assay.
(§2) Adult male CF-I albino mice (18-25 g, Charles River Laboratories) are exclusively used for in-house MES screen of compounds. Male Sprague-Dawley albino rats (100-125 g, Charles River Laboratories) are also used to test anticonvulsant compounds. Variability of test outcomes is reduced by using animals of the same sex, age, and weight. Animals are permitted to rest and recover from transit for at least 48 hr prior to experimentation. Animals are used for AED testing only once. In some instances, the animals may be anesthetized prior to blood collection and/or whole brain extraction for pharmacokinetic assay. All animals are maintained and handled as outlined in standard animal care guidelines.
(§3) In the experiments, testing compounds are prepared as suspensions in 0.5% methyl cellulose (Sigma, Cat #M0512, Viscosity 4000 cP at 20° C.) in water, regardless of solubility. Dry powder compounds are initially ground with a glass rod in a test tube in several drops of methyl cellulose to create a paste and to break down any large chunks. After several minutes of grinding, the volume of the suspension is increased to the final concentration desired. The suspension is then sonicated using a Branson sonicator model 3510 in a water bath at room temperature for 15 minutes. Compound suspensions are further vortexed prior to animal dosing. In some of the cases, DMSO is used to initially solubilize compounds in small volumes and then this solution is added to the 0.5% methyl cellulose solution, in order to create more even and less aggregated compound suspensions. The final concentration of DMSO is 3.75%, an amount with no apparent toxicity or neuroprotective effects in our usual rotarod and MES tests. Methyl cellulose/DMSO compound suspensions are identically prepared for intraperitoneally (i.p.) to mice or orally (p.o.) to rat dosing.
Initially the animals are weighed with an electronic scale and then marked. Data recording sheets are generated for each compound assessment. Mice or rats are dosed with the compound suspension at 0.01 mL/g of body weight. The typical injection volume range is between 180-250 μl for mice. […] Rats are p.o. dosed using a flexible feeding tube, typically starting at a compound dose of 5 mg/kg.
A Rodent Electroconvulsive Stimulator (Model 200, Hamit-Darvin-Freesh, Snow Canyon Clinic, Ivins, Utah) is used for MES testing. A 60-Hz alternating current (50 mA for mice; 150 mA for rats) is delivered for 0.2 seconds through corneal electrodes to the mice. A drop of 0.5% tetracaine (Sigma, Cat. #T-7508) solution is placed on the eye prior to current delivery. The electrodes are subsequently placed gently onto the eyes of the animal and the electrical shock is initiated by triggering through a foot-pedal activator. The animals are restrained by hand and gently released as the shock is delivered and the seizure commences. Animals are monitored for hind limb tonic extension as the end point for this test. Current delivery is recorded as a measure of overall seizure-induction potential. Electrical current delivery can vary from approximately 30-55 mA (mice) or 90-160 mA (rats) depending on impedance in the animal and quality of the current delivery (ie. correct placement of the electrodes on the cornea). […]

[2] = test system: rat MES model of epilepsy; assay: Maximal electroshock seizure (MES) test, rat; format: in vivo; conditions: MES, rat; read-out: Rat ED50
Text: as §1, §2, §3
Initially the animals are weighed with an electronic scale and then marked. Data recording sheets are generated for each compound assessment. Mice or rats are dosed with the compound suspension at 0.01 mL/g of body weight. The typical injection volume range is between 180-250 μl for mice. Compounds are dosed by i.p. to mice using a 25 or 22 gauge needle, depending on the viscosity of the suspension. Rats are p.o. dosed using a flexible feeding tube, typically starting at a compound dose of 5 mg/kg.
A Rodent Electroconvulsive Stimulator (Model 200, Hamit-Darvin-Freesh, Snow Canyon Clinic, Ivins, Utah) is used for MES testing. A 60-Hz alternating current (50 mA for mice; 150 mA for rats) is delivered for 0.2 seconds through corneal electrodes to the mice. […] Animals are monitored for hind limb tonic extension as the end point for this test. Current delivery is recorded as a measure of overall seizure-induction potential. […]

KCNQ5 = KCNQ5 (Homo sapiens, UniProt Q9NR82); assay: Two-electrode voltage-clamp in Xenopus laevis oocytes, KCNQ5; format: cell-based; conditions: oocyte expression, at EC75
Method: (§4) Female Xenopus laevis extracted ovaries were purchased from eNASCO (LM00935MX, eNASCO Fort Atkinson, Wis.). […] Approximately 50 nl cRNA (about 50 ng) was injected for KCNQ1, KCNQ4, and KCNQ5 using a Nanoject microinjector (Drummond, Broomall, Pa., USA). For co-expression of KCNQ2 and KCNQ3 and of KCNQ1 and KCNE1, cRNA's were mixed in equal molar ratios before injection of approximately 50 nl. […] Oocytes were kept in Culture Barth solution at 19° C. which was changed daily and currents were recorded after 3 to 5 days.
(§5) KCNQ channel currents expressed in Xenopus laevis oocytes were recorded using a two-electrode voltage-clamp. […] The oocytes were placed in custom built perfusion chambers connected to a continuous flow system and impaled with a current electrode and a voltage-clamp electrode pulled from borosilicate glass on a Flaming/Brown Micropipette Puller (Sutter Instruments Co, Novato, Calif., USA).
(§6) All compounds were dissolved in DMSO to obtain concentrated stock solutions. On the day of electrophysiological experiments the stock solutions were thawed and diluted in recording solution to their final concentrations. The final DMSO concentration never exceeded 0.1%. Compound delivery was performed using a custom built multi-barrel apparatus connected to the flow system.
(§7) Data were acquired by means of an Axograph X software (Axograph Scientific, Sydney, AU) and analyzed using Graph Pad Prism (GraphPad Software Inc., CA, USA). […]
(§8) After steady channel current was recorded in the presence of Retigabine at its EC75, recorded oocyte was washed with the recording solution until its steady current returned to its normal level without the presence of any drugs. Then the channel steady current was recorded in the presence of the test compound at its EC75. The percent efficacy was then expressed as: % efficacy=(C2/C 1)×100 where C2 is the recorded steady current in the presence of follow-on compound at its EC75 and C1 is the recorded steady current in the presence of Retigabine at its EC75.

KCNQ1/NE1 = KCNQ1/NE1 (Homo sapiens, UniProt P51787); assay: Two-electrode voltage-clamp in Xenopus laevis oocytes, KCNQ1/KCNE1; format: cell-based; parameters: dose or concentration left out as unconfirmed; conditions: oocyte expression
Method: as §4
KCNQ channel currents expressed in Xenopus laevis oocytes were recorded using a two-electrode voltage-clamp. […]
as §7, §8

KCNQ2 channels = biological target: T1, KCNQ2 channels (Homo sapiens, UniProt O43526); assay: Potassium ion efflux, KCNQ2 channels expressed in CHO cells; format: cell-based
T1 construct: expressed in transfected cells; host or cells: CHO cells
Method: Using natively expressed M-currents present in differentiated pheochromocytoma (PC-12) cells and CHO cells transfected with KCNQ2 and hERG potassium channels, the in vitro activity of compound A on potassium ion efflux was determined.
The EC50 values for retigabine and compound A on the activation of KCNQ2 channels expressed in CHO cells were determined on three separate occasions in triplicate.

KCNQ2/3 = KCNQ2/3 (Homo sapiens, UniProt O43525+O43526); assay: Two-electrode voltage-clamp in Xenopus laevis oocytes, KCNQ2/3; format: cell-based; conditions: oocyte expression, at EC75
Method: as §4, §5, §6, §7, §8

KCNQ1 = KCNQ1 (Homo sapiens, UniProt P51787); assay: Two-electrode voltage-clamp in Xenopus laevis oocytes, KCNQ1; format: cell-based; parameters: KCNQ1 Block (%): dose or concentration left out as unconfirmed; conditions: oocyte expression
Method: as §4, §5, §6, §7, §8

KCNQ4 = KCNQ4 (Homo sapiens, UniProt P56696); assay: Two-electrode voltage-clamp in Xenopus laevis oocytes, KCNQ4; format: cell-based; conditions: oocyte expression, at EC75
Method: as §4, §5, §6, §7, §8

Chain of KCNQ1/NE1 (P51787 whole entry): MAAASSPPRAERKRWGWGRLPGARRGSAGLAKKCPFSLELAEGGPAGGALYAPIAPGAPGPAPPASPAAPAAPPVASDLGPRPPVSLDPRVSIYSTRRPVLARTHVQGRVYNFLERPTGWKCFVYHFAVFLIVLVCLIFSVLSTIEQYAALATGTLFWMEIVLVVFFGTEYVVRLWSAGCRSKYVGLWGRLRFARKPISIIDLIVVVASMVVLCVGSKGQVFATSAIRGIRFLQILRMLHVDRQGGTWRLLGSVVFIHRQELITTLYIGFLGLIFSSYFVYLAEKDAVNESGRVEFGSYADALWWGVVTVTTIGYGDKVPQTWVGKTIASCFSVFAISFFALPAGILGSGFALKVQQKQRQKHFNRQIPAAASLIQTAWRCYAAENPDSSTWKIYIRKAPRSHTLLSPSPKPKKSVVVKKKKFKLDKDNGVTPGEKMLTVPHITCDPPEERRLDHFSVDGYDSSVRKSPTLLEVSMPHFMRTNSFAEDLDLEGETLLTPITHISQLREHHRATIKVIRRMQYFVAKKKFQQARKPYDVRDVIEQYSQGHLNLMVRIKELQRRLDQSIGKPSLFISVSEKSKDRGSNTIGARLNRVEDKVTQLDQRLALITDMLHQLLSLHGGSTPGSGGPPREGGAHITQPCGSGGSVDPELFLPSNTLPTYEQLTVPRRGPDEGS
T1 sequence (O43526 whole entry): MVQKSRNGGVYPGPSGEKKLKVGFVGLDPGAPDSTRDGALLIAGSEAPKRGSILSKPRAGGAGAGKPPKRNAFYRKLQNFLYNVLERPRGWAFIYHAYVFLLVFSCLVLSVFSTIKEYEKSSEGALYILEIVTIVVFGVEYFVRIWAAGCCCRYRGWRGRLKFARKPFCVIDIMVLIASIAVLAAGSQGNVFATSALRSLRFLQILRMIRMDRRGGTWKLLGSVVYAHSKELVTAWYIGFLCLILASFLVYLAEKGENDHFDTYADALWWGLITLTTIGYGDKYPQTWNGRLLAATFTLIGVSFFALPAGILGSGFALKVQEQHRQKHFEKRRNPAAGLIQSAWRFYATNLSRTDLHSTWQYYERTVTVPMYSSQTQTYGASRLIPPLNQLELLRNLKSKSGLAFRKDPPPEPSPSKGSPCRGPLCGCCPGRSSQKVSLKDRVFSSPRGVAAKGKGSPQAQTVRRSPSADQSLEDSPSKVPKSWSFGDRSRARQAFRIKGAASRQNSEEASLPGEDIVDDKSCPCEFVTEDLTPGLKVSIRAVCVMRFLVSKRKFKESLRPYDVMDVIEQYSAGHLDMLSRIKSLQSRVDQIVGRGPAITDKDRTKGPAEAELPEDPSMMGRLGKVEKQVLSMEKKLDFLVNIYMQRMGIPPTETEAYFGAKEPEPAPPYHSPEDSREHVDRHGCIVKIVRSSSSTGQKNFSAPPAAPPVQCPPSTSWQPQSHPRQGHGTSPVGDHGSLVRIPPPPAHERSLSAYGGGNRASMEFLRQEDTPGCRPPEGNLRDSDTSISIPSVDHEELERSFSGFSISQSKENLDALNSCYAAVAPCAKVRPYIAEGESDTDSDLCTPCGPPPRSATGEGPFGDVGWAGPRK

Row | Compound | ED50 [1] [mg/kg] | other results
1 | COc1cc(N2CCc3ccccc3C2)cc(C)c1NC(=O)CC(C)(C)C | 0.12 to 1.2 | 
2 | O=C(CCC1CCCC1)Nc1c(Cl)cc(N2CCc3ccccc3C2)cc1C(F)(F)F | > 12 | 
3 | CC(C)(C)CC(=O)Nc1ccc(N2CCc3cc(C(F)(F)F)ccc3C2)cc1Cl | > 12 | 
4 | CC(C)(C)CC(=O)Nc1c(Cl)cc(N2CCc3cc(Cl)ccc3C2)cc1C(F)(F)F | > 12 | 
5 | Cc1cc(N2CCc3cc(F)ccc3C2)cc(Cl)c1NC(=O)CC(C)(C)C | > 12 | 
6 | Cc1cc(N2CCc3cc(F)ccc3C2)cc(C)c1NC(=O)CC(C)(C)C [drawing 119] | 0.12 to 1.2 | ED50 [2]: 0.12 to 1.2 mg/kg
7 | CC(C)(C)CC(=O)Nc1ccc(N2CCc3cc(F)ccc3C2)cc1C(F)(F)F | 0.12 to 1.2 | 
8 | Cc1cc(N2CCc3ccc(F)cc3C2)cc(Cl)c1NC(=O)CC(C)(C)C | 0.12 to 1.2 | 
9 | Cc1cc(N2CCc3cc(Cl)ccc3C2)cc(C)c1NC(=O)CC(C)(C)C | 0.12 to 1.2 | 
10 | Cc1cc(N2CCc3cc(Cl)ccc3C2)cc(Cl)c1NC(=O)CC(C)(C)C | 0.12 to 1.2 | 
11 | CC(C)(C)CC(=O)Nc1c(Cl)cc(N2CCc3ccccc3C2)cc1C(F)(F)F | > 12 | 
12 | Cc1cc(N2CCc3cc(C(F)(F)F)ccc3C2)cc(Cl)c1NC(=O)CC(C)(C)C | > 12 | 
13 | O=C(CCC1CCCC1)Nc1c(Cl)cc(N2CCc3cc(F)ccc3C2)cc1C(F)(F)F | > 12 | 
14 | CC(C)(C)CC(=O)Nc1c(Cl)cc(N2CCc3cc(C(F)(F)F)ccc3C2)cc1C(F)(F)F | > 12 | 
15 | Cc1cc(N2CCc3cc(C(F)(F)F)ccc3C2)cc(C)c1NC(=O)CC(C)(C)C | 0.12 to 1.2 | ED50 [2]: 0.12 to 1.2 mg/kg
16 | CC(C)(C)CC(=O)Nc1ccc(N2CCc3ccc(C(F)(F)F)cc3C2)cc1C(F)(F)F | 0.12 to 1.2 | 
17 | Cc1cc(N2CCc3ccc(C(F)(F)F)cc3C2)cc(C)c1NC(=O)CC(C)(C)C | 0.12 to 1.2 | ED50 [2]: 0.12 to 1.2 mg/kg
18 | CC(C)(C)CC(=O)Nc1ccc(N2CCc3cc(F)ccc3C2)cc1Cl | > 12 | 
19 | CC(C)(C)CC(=O)Nc1c(Cl)cc(N2CCc3ccccc3C2)cc1OC(F)(F)F | > 12 | 
20 | COc1cc(N2CCc3ccccc3C2)cc(OC)c1NC(=O)CC(C)(C)C | 0.12 to 1.2 | ED50 [2]: 0.12 to 1.2 mg/kg
21 | Cc1cc(N2CCc3ccccc3C2)cc(C)c1NC(=O)CC(C)(C)C | 0.12 to 1.2 | 
22 | CC(C)(C)CC(=O)Nc1c(Cl)cc(N2CCc3ccc(F)cc3C2)cc1C(F)(F)F | > 12 | 
23 | Cc1cc(N2CCc3ccc(F)cc3C2)cc(C)c1NC(=O)CC(C)(C)C | 0.12 to 1.2 | 
24 | COc1ccc2c(c1)CCN(c1cc(C)c(NC(=O)CC(C)(C)C)c(C)c1)C2 | > 12 | 
25 | CC(C)(C)CC(=O)Nc1c(Cl)cc(N2CCc3cc(F)ccc3C2)cc1C(F)(F)F | > 12 | 
26 | CCOC(=O)Nc1ccc(NCc2ccc(F)cc2)cc1N [retigabine, N-[2-amino-4-(4-fluorobenzylamino)phenyl]carbamic acid, ethyl ester, reference compound] |  | KCNQ5 Efficacy Relative to Retigabine (%) (KCNQ5): 100%; KCNQ1/NE1 Block (%) (KCNQ1/NE1): 4.3%; EC50 (KCNQ2 channels): 291 nM; KCNQ2/3 Efficacy Relative to Retigabine (%) (KCNQ2/3): 100%; KCNQ1 Block (%) (KCNQ1): 12%; KCNQ4 Efficacy Relative to Retigabine (%) (KCNQ4): 100%
27 | Cc1cc(N2CCc3ccccc3C2)cc(Cl)c1NC(=O)CC(C)(C)C | 0.12 to 1.2 | 
